# Laboratory results as given in US7776854B2, “Benzazole derivatives for the treatment of scleroderma” (Merck Serono SA, priority 2001, dated 2010).
# Legend:
# [1] = system: bleomycin-induced lung fibrosis; experiment: Determination of bleomycin-induced lung collagen content (hydroxyproline); format: in vivo, mice; settings: 7 mg/kg orally, day 17, p=0.009
# Description: (§1) Female 10- to 12-week-old C57BL/6 wild-type mice were intratracheally instilled with bleomycin (3.75 U/kg) dissolved in 10 μl saline to induce the fibrosis in the lungs. The treatment with a test compound started on day 0 and was continued daily—from day 0 (1 hour before the bleomycin instillation) to day 17. The test compound was administered orally at different dosages. Control mice were intratracheally instilled with saline on day 0. The body weight loss was recorded on a daily basis and the results of the determination are graphically represented in FIG. 1.
# The objective of the present assay is to determine the reduction in lung fibrosis by specifically measuring the hydroxyproline content in the lungs of bleomycin-treated mice. Hydroxyproline is an amino acid component necessary for the build-up of collagen. The quantification of hydroxyproline in the lung after collagen hydrolysis is therefore seen as a suitable indicator for lung collagen content.
# Mice were treated as described in Example 2. At day 17 of instillation, the animals were euthanized, and both lungs were removed. Total lung collagen was determined by analysis of hydroxyproline. Briefly, lungs were homogenized in Tris-HCl, pH 7.6, with a Tissue Tearor followed by incubation in Amberlite overnight at 115° C. […] Samples were cooled for 10 min and read at 560 nm on spectrophotometer. […]
# [2] = system: bleomycin-induced lung fibrosis; experiment: Determination of bleomycin-induced body weight loss; format: in vivo; settings: C57BL/6 mice
# Description: The objective of the present Assay is to determine the loss of body weight of mice which is usually triggered by bleomycin-induced lung fibrosis.
# as §1
# [3] = system: bleomycin-induced lung fibrosis; experiment: Determination of bleomycin-induced pulmonary fibrosis (histological scoring); format: in vivo, mice
# Description: as §1
# Injection of bleomycin in mice induces focal fibrotic lesions with thickened intra-alveolar septa, collapse of alveolar septa as well as massive infiltration of lymphocytes into the lung interstitium. Such focal fibrotic lesions are histologically determined on day 17 after bleomycin administration.
# Mice were treated as described in Example 2. […] Morphological evaluation of bleomycin-induced lung inflammation and fibrosis was performed using a semiquantitative scoring method consisting in a visual evaluation of histological section photos in which the surface of the fibrotic part of the lung is evaluated compared to the total surface. […]
# [4] = system: bleomycin-induced lung inflammation; experiment: Determination of bleomycin-induced pulmonary oedema (lung wet/dry weight difference); format: in vivo, mice
# Description: as §1
# Lung fibrotic changes following instillation of bleomycin result from the infiltration of inflammatory cells like macrophages, lymphocytes and neutrophils into the lungs a well as an increase in pro-inflammatory cytokines such as TNFα. The pulmonary oedema is analyzed to determine whether a test compound affects the bleomycin-induced lung inflammation. What is determined is the difference wet/dry of the examined lungs, where high differences indicate a high degree of pulmonary oedema.
# Mice were treated as described in Example 2. The test compound was compound (A) (i.e. 1,3-benzothiazol-2-yl(2-{[4-(morpholin-4-ylmethyl)benzyl]-oxy}pyrimidin-4-yl)aceto-nitrile). […] The lung dry and wet weight differences were calculated and graphically reported in FIG. 2. which illustrates the outcome of the assay for the test compound (A).
smiles,measurement,setting,value
"N#CC(c1ccnc(OCc2ccc(CN3CCOCC3)cc2)n1)c1nc2ccccc2s1 (stereo not shown) [test compound (A), 1,3-benzothiazol-2-yl(2-{[4-(morpholin-4-ylmethyl)benzyl]-oxy}pyrimidin-4-yl)acetonitrile]",lung hydroxyproline content compared with saline-treated mice,[1],significantly lower
same,reduction of the loss of body weight induced by bleomycin,"[2]; 2 mg/kg orally daily, day 17",about 30%
same,body weight course,"[2]; bleomycin instilled, oral daily treatment, day 5 to day 17, versus saline-treated mice",stabilization of their body weight
same,"bleomycin-induced lung fibrosis, histological scoring of fibrotic lesions compared with saline-treated mice","[3]; 7 mg/kg orally, day 17, p=0.016",significantly reduced
same,"bleomycin-induced lung fibrosis, histological scoring of fibrotic lesions compared with saline-treated mice","[3]; 20 mg/kg orally, day 17, p=0.009",significantly reduced
same,pulmonary oedema (lung wet/dry weight difference) compared with saline-treated mice,"[4]; 2 mg/kg orally, day 17, p=0.016",significant reduction
same,pulmonary oedema (lung wet/dry weight difference) compared with saline-treated mice,"[4]; 7 mg/kg orally, day 17, p=0.009",significant reduction
